Experimental data published in US20210137126A1, “USE OF PEPTIDES AS IN[…]” (INSTITUT NATIONAL DES SCIENCES APPLIQUEES DE LYON, priority 2018, published 2021).

Tested on: pea aphid Acyrthosiphon pisum
Experiment: Insecticide test: ingestion of the peptide in artificial medium by pea aphid larvae, mortality monitored over 7 days
Assay type: in vivo
Details: for TL50 (lethal time at which mortality of individuals is 50%): survival analysis, normal logarithmic adjustment
Description: The experiments were carried out on aphids from the parthenogenetic clone of the pea aphid LL01 which contained only the primary symbiont B. aphidicola. The aphids were bred and kept on feva bean plants (Vicia faba L., Aquadulce variety) under climate-controlled conditions (temperature 21±1° C., relative humidity 70%, photoperiod of 16 h), in order to obtain aphids which reproduced solely by viviparous parthenogenesis. In order to reduce the variability linked to the use of individuals at different stages of development, the aphids were obtained from a synchronized brood. For this, adult aphids that were ready to lay were placed on feva bean plants. […] The manipulation was carried out with a negative control composed solely of artificial medium and a positive control representing one of the concentrations of the range being studied with the aphids. The range being studied comprised different media containing the BCR4 peptide studied at various concentrations which varied from 5 to 80 μM. The experiments were carried out on thirty larvae per condition divided into three distinct groups of ten individuals.
All of the data regarding the mortality of the aphids were analyzed statistically by standard survival processing. All of the BCR4 concentrations were analyzed separately in a parametric survival analysis with a normal logarithmic adjustment.
The measurement of the insecticidal activity of BCR4 was carried out by incorporating increasing doses of peptides into the nutrient medium for the aphids and monitoring of their mortality was carried out over 7 days.

## DFDPTEFKGPFPTIEICSKYCAVVCNYTSRPCYCVEAAKERDQWFPYCYD (listed as Acyrthosiphon pisum) [BCR4, Bacteriocyte Cysteine Rich peptide of Acyrthosiphon pisum]
BCR4 concentration 5 μM in artificial medium
  TL50 (lethal time at which mortality of individuals is 50%): >20 days
BCR4 concentration 10 μM in artificial medium
  TL50 (lethal time at which mortality of individuals is 50%): 11.3 days
BCR4 concentration 20 μM in artificial medium
  TL50 (lethal time at which mortality of individuals is 50%): 3.48 days
BCR4 concentration 27.5 μM in artificial medium
  TL50 (lethal time at which mortality of individuals is 50%): 3.24 days
BCR4 concentration 35 μM in artificial medium
  TL50 (lethal time at which mortality of individuals is 50%): 1.94 days
BCR4 concentration 40 μM in artificial medium
  TL50 (lethal time at which mortality of individuals is 50%): 1.76 days
BCR4 concentration 80 μM in artificial medium
  TL50 (lethal time at which mortality of individuals is 50%): 1.16 days
From the first day following ingestion
  mortality at onset of the dose-response effect: high mortality
Increasing doses 5 to 80 μM, mortality monitored over 7 days
  dose-response over the survival time for the aphids: very significant dose-response
Pea aphid, peptide in nutrient medium
  range of activity (insecticidal): 5 to 80 µM
